Measurements published in the SangsterLogP compilation.

assay: method code SF, from Furst, W.; Becher, M. (1990). Homologues of 2-acetamido-4-nitropropoxybenzene (Falimint). I. Preparation, physicochemical and organoleptic properties. Pharmazie, 45(12)934-935.

SMILES	logP
CCCCCCCC(=O)Nc1cc([N+](=O)[O-])ccc1OCCC	3.14
CCCCCC(=O)Nc1cc([N+](=O)[O-])ccc1OCCC	2.78
CCCCOc1ccc([N+](=O)[O-])cc1NC(C)=O	2.26
CCCCCOc1ccc([N+](=O)[O-])cc1NC(C)=O	2.67
CCCOc1ccc([N+](=O)[O-])cc1NC(=O)CC	1.93
CCCCCCCCOc1ccc([N+](=O)[O-])cc1NC(C)=O	3.18
CCCCCCCCCCCC(=O)Nc1cc([N+](=O)[O-])ccc1OCCC	3.48
CCCOc1ccc([N+](=O)[O-])cc1NC(C)=O	1.6
CCCCCCCCCC(=O)Nc1cc([N+](=O)[O-])ccc1OCCC	3.3
CCCCCCCCCCCCOc1ccc([N+](=O)[O-])cc1NC(C)=O	3.65
COc1ccc([N+](=O)[O-])cc1NC(C)=O	1.6
CCOc1ccc([N+](=O)[O-])cc1NC(=O)CC	1.85
CCCOc1ccc([N+](=O)[O-])cc1NC(=O)CCC	2.4
CCCCCCOc1ccc([N+](=O)[O-])cc1NC(C)=O	2.91
